Where no end group is shown, it is not given here.
Legend:
Format in all cases: cell-based
Conditions in all cases: compound alone
[1] = tested on: P.aeruginosa strain 107 (which is gentamicin - resistant); experiment: MIC in trypticase soy broth, test wells (Example 1)
Procedure: (§1) Approximately 1-5×10^5 colony forming units (CFU's) of P.aeruginosa strain 27853 or of P.aeruginosa strain 107 (which is gentamicin - resistant) dispersed in 100 ul of trypticase soy broth (TSB) were added to each of a series of test wells. […] For purposes of this example, Peptide 1 is amide-terminated Magainin II, Peptide 2 is of the following structural formula: […]

[2] = tested on: P.aeruginosa strain 27853; experiment: as above
Procedure: as §1

[3] = tested on: isolates of strain MR-PSA (multiply resistant) Pseudomonas aeruginosa; experiment: MIC in microtiter plates, Mueller-Hinton broth (Examples 2 and 3)
Procedure: For Examples 2 and 4, microorganisms employed in the assays were grown according to the procedure described in Stutman, et al., Antimicrobial Agents in Chemotherapy, Vol. 34, July 1990.
The final assays were then conducted in microtiter plates containing Mueller-Hinton broth 10^5 organisms were added to each well.
The minimal inhibitory concentrations, (MIC's), according to the procedure of Example 2, were tested against various isolates of strain MR-PSA, of Pseudomonas aeruginosa, except that Peptide 4 replaces Peptide 1.

Substance: GIGKFLHSAKKFGKAFVGEIMNS-NH2 [Peptide 1]
- MIC [1]: > 32 µg/mL
- MIC [2]: > 32 µg/mL
- MIC ([3]; Table 2, MR-PSA isolate 1): 32 µg/mL
- MIC ([3]; Table 2, MR-PSA isolate 2): > 256 µg/mL
- MIC ([3]; Table 2, MR-PSA isolate 3): 32 µg/mL
- MIC ([3]; Table 2, MR-PSA isolate 4): 256 µg/mL

Reference: patent US5208220A, “Composition and treatment with biologically active peptides and antibiotics which inhibit DNA gyrase” (priority 1991, dated 1993)
